The source of these data is PMC4891657, “Orexin 2 Receptor Antagonism is Sufficient to Promote NREM and REM Sleep from Mouse to Man” (Scientific Reports, 2016).

Values joined by “and” are separate entries in the source; they are usually repeats but may differ in a detail not shown here. Identical values can stand only once.

Assay [1] addresses T1, OX2R (Mus musculus, UniProt P58308).
T1 construct: expressed in transfected cells; host or cells: CHO-K1
T1 sequence (P58308 1-460): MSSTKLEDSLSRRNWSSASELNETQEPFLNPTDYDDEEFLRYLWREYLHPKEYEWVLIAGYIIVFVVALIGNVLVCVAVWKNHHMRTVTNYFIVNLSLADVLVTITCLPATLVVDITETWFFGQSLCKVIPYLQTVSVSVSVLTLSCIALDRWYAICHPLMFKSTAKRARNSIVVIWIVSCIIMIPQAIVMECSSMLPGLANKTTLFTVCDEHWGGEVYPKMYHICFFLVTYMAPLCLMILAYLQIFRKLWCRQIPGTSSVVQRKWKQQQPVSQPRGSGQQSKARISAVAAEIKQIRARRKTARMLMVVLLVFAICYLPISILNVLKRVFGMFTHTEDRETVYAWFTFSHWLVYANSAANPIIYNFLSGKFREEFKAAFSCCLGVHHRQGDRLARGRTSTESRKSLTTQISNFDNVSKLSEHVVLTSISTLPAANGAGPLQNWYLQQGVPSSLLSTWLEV
Kind of assay: Inhibition of orexin-peptide-A-induced calcium mobilization in CHO cells, mouse OX2R. Particulars: for fold OX2R selectivity (Kb): OX1R Kb / OX2R Kb. Format: cell-based. As for the experimental part:
MK-1064 was evaluated for its ability to inhibit orexin-peptide-A-induced calcium mobilization in CHO cell lines separately expressing OX1R and OX2R from mice, rats, rabbits, dogs, rhesus monkeys and humans.
(§1) Binding and functional blockade of OX1R and OX2R with MK-1064 relative to other 2-SORAs and the DORA, MK-6096, were assessed using membranes from Chinese hamster ovary (CHO)-K1 cells (American Type Tissue Collection, Manassas, VA) transfected to express human, mouse, rat, rabbit, dog, or rhesus monkey OX1R or OX2R receptors, as described previously. The kinetics of binding to human OX2R was assessed by radioligand displacement on CHO-K1 cells expressing the receptor. […] The ON rate analysis was performed by presoaking GF/B filters in 0.3% polyethyleneimine (Sigma) using a Skatron 12-well cell harvester and cold buffer at the indicated time points after addition. For OFF rate determination, binding reactions were allowed to proceed to equilibrium and terminated with 1000x [Kd] of unlabeled antagonist and filtered as above at pre-determined time points. Ultima Gold^TM (PerkinElmer 6013327) scintillation cocktail was added to each filter disc and counted on a PerkinElmer TriCarb 2910 scintillation counter. Data were analyzed using GraphPad® Prism v 6.04 (San Diego, CA, USA). The KON rate was determined according to the equation, KON = (KOBS − KOFF)/[ligand].

The target in assay [2] is T2, OX2R (Homo sapiens, UniProt O43614).
T2 sequence (O43614 1-444): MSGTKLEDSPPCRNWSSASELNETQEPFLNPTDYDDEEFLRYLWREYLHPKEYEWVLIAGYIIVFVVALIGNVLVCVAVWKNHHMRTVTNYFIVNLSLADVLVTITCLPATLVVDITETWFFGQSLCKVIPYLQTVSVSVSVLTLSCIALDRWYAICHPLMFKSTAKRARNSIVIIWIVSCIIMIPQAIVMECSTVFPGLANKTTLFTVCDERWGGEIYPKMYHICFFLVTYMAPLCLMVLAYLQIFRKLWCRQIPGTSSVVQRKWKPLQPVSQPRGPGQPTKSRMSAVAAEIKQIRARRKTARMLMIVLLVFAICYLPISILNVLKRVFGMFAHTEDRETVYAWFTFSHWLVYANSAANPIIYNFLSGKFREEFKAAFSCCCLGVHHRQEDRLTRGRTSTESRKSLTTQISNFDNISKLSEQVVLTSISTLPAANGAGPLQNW
Type of assay: in vivo, transgenic rats expressing human Hcrtr2. Also noted: from tissue; host or cells: brain tissue lysate of male transgenic rats expressing human Hcrtr2 cDNA under the rat enolase promoter. An excerpt:
OX2R occupancy in transgenic rats expressing human Hcrtr2 cDNA via the rat enolase promoter in radioligand-binding displacement assays have been described previously. […] Normalized curves where the maximum occupancy value was defined as 100% relative to maximal observed plasma were constructed by fitting data to a one-site binding (hyperbola) curve (GraphPad Prism® v. 6.04, San Diego, CA, USA).

Assay [3] addresses T2, OX2R. Kind of assay: hOX2R binding kinetics (3H-labelled ligand, ON and OFF rate). Also noted: expressed in transfected cells; host or cells: CHO-K1. Particulars: for hOX2R binding kinetics KON: KON = (KOBS − KOFF)/[ligand]; for Kd / hOX2R binding kinetics KOFF / hOX2R binding kinetics T1/2OFF / hOX2R binding kinetics T1/2ON: room temperature, pH 7.4. As for the experimental part: as §1

[4] abbreviates: rats, 2 hours following treatment vs vehicle.

As to `COc1ccc(CNC(=O)c2cc(-c3cncc(C)c3)ncc2-c2ccccc2)nc1OC` [2-SORA-7], at OX2R [1], the Kb came to 14 nM and the “fold OX2R selectivity (Kb)” value is “[568] fold”.

`COc1ccc(CNC(=O)c2cc(-c3cc(Cl)cc(Cl)c3)cnc2-c2cccnc2)cc1OC` [2-SORA-18]: at OX2R [1], the Kb stood at 24 nM and the “fold OX2R selectivity (Kb)” value was “[9] fold”.

Broadly, the Kd is the concentration at which binding is half-saturated. Read a low Kd as higher affinity. Consider `COc1ccc(CNC(=O)c2cc(-c3cncc(Cl)c3)cnc2-c2ccccn2)nc1OC` [MK-1064, 5″-chloro-N-[(5,6-dimethoxypyridin-2-yl)methyl]-2,2′:5′, 3″-terpyridine-3′-carbo xamide], for which the “OX2R occupancy at which significant reductions in active wake were observed” value on OX2R [2] (in vivo) was 94% and 97%. At OX2R [2] (setting [4]), the “OX2R occupancy at which changes in REM sleep occurred” value was determined as 94%, the “OX2R occupancy at which no significant reduction in active wake was observed” value was 89% and the “OX2R occupancy at which significant SWS changes were induced” value is recorded as 97%. Moreover, on OX2R [3], the “hOX2R binding kinetics KON” value worked out at 1.19e+07 min⁻¹, the Kd stood at 0.51 nM, the “hOX2R binding kinetics KOFF” value was 0.00697 mol⁻¹ min⁻¹ and the “hOX2R binding kinetics T1/2OFF” value was 110 min. Moreover, the “hOX2R binding kinetics T1/2ON” value on OX2R [3] is given as 21.1 min. Further, at OX2R [1], the Kb stood at 7 nM and the “fold OX2R selectivity (Kb)” value is “[1471] fold”.

In the case of `COc1ccc(CNC(=O)c2cc(-c3cncc(C)c3)ncc2-c2nccs2)nc1OC` [MK-3697], on OX2R [3], the equilibrium dissociation constant (Kd) came to 1.16 nM, the “hOX2R binding kinetics T1/2OFF” value was 54.4 min and the “hOX2R binding kinetics T1/2ON” value came to 24.3 min. In addition, at OX2R [1], the Kb worked out at 12 nM.

Consider `Cc1ccc(-c2ncccn2)c(C(=O)N2C[C@H](COc3ccc(F)cn3)CC[C@H]2C)c1` [MK-6096], for which, on OX2R [3], the “hOX2R binding kinetics KON” value is 9.19e+06 min⁻¹, binding was put at a Kd of 0.34 nM, the “hOX2R binding kinetics KOFF” value was 0.0188 mol⁻¹ min⁻¹ and the “hOX2R binding kinetics T1/2OFF” value was 118.3 min. The “hOX2R binding kinetics T1/2ON” value at OX2R [3] is 62.9 min. In addition, on OX2R [1], the Kb stood at 10 nM and the “fold OX2R selectivity (Kb)” value is “[0.9] fold”.
